Assay results: PubChem BioAssay (NCI)
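Assay format: 96-well plates, 48-hour exposure. GI50 = concentration required for 50% inhibition of growth. At the TGI there is no net growth.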

How the values were obtained:
Assay in all cases: NCI anticancer screen, dose series, 48 h
A498 renal = system: A498 renal
EKVX NSCLC = system: EKVX NSCLC
HOP-62 NSCLC = system: HOP-62 NSCLC
NCI-H226 lung = system: NCI-H226 lung
SK-MEL-5 melanoma = system: SK-MEL-5 melanoma
SK-OV-3 ovarian = system: SK-OV-3 ovarian
UACC-62 melanoma = system: UACC-62 melanoma
UO-31 renal = system: UO-31 renal
DU-145 prostate = system: DU-145 prostate
PC-3 prostate = system: PC-3 prostate

Structure (SMILES) | TGI (A498 renal) [µM] | TGI (EKVX NSCLC) [µM] | TGI (HOP-62 NSCLC) [µM] | TGI (NCI-H226 lung) [µM] | TGI (SK-MEL-5 melanoma) [µM] | TGI (SK-OV-3 ovarian) [µM] | TGI (UACC-62 melanoma) [µM] | TGI (UO-31 renal) [µM] | GI50 (A498 renal) [µM] | GI50 (EKVX NSCLC) [µM] | GI50 (HOP-62 NSCLC) [µM] | GI50 (NCI-H226 lung) [µM] | GI50 (SK-MEL-5 melanoma) [µM] | GI50 (SK-OV-3 ovarian) [µM] | GI50 (UACC-62 melanoma) [µM] | GI50 (UO-31 renal) [µM] | GI50 (DU-145 prostate) [µM] | TGI (DU-145 prostate) [µM] | GI50 (PC-3 prostate) [µM] | TGI (PC-3 prostate) [µM]
O=C(O)CCC1(Br)CCCCC(Br)C1=O (stereo not drawn) | > 100 | > 100 | > 100 | > 100 | > 100 | > 100 | > 100 | – | – | – | – | – | – | – | – | – | – | – | – | –
CN(c1ccccc1)C1C(=O)N(c2ccccc2)C1/C=C/c1ccccc1 (stereo not drawn) | > 100 | > 100 | – | > 100 | > 100 | > 100 | > 100 | > 100 | – | – | – | – | – | – | – | – | – | – | – | –
CCC[CH2][Sn]([CH2]CCC)([O]C(=O)c1nccnc1N)[O]C(=O)c1nccnc1N | 2.07 | 2.18 | 3.57 | 2.63 | 2.49 | 3.63 | 2.16 | 2.77 | 0.819 | 1.02 | 2.12 | 1.33 | 1.24 | 2.06 | 0.998 | 1.45 | – | – | – | –
O=C(Nc1ccccc1Br)c1cccc([N+](=O)[O-])c1O | 9.05 | 42.9 | 9.79 | 14.8 | 5.11 | > 57.8 | 16.4 | 5.73 | – | – | – | – | – | – | – | – | – | – | – | –
Cc1cc(C)cc(Sc2c([N+](=O)[O-])ncn2C)c1 | 77.1 | > 100 | > 100 | 22 | 26.7 | 75.5 | 29.8 | 85.9 | – | – | – | – | – | – | – | – | – | – | – | –
CC(=O)OCC1OC(OC2=C(CC=C(Cl)Cl)C(=O)c3ccccc3C2=O)C(OC(C)=O)C(OC(C)=O)C1OC(C)=O (stereo not drawn) | 20 | – | 34.4 | 50.5 | 17 | 28.7 | 11.2 | 3.37 | 3.32 | – | 18.5 | 15.6 | 4.32 | 15.1 | 2.85 | 1.44 | 11.8 | 24.1 | 2.66 | 11.5
Cc1ccccc1N=Nc1c(O)[nH]c2ccccc12 | – | > 100 | > 100 | > 100 | > 100 | > 100 | > 100 | > 100 | – | – | – | – | – | – | – | – | – | > 100 | – | > 100
CC1(C)C(=S)C(C)(C)C1=S | – | > 100 | > 100 | > 100 | > 100 | > 100 | > 100 | > 100 | – | – | – | – | – | – | – | – | – | > 100 | – | > 100
CC(C)(C)[Si](C)(C)O/N=C\c1ccc(O[Si](C)(C)C(C)(C)C)cc1 | > 100 | > 100 | > 100 | – | > 100 | > 100 | > 100 | > 100 | – | – | – | – | – | – | – | – | – | – | – | –
O=C1C(Cl)=C(Nc2cccc(O)c2)C(=O)N1c1ccc(Cl)c(Cl)c1 | 28.7 | – | 32.5 | 46.6 | 64.7 | 73.3 | > 100 | > 100 | 12.1 | – | 16.4 | 19.7 | 20 | 25.5 | 27.6 | 31.7 | 19.3 | 42.1 | 19 | 49.6
O=C(NNC(=O)c1ccncc1)c1ccncc1 | > 100 | > 100 | > 100 | – | > 100 | > 100 | > 100 | > 100 | – | – | – | – | – | – | – | – | – | > 100 | – | > 100
CC(C)c1cccc(C(C)C)c1NC(=O)C(=O)C(C(=O)c1ccc2ccccc2c1)C1OC(=O)c2ccccc21 (stereo not drawn) | > 100 | > 100 | > 100 | 81.5 | > 100 | > 100 | > 100 | > 100 | – | – | – | – | – | – | – | – | – | – | – | –
N#Cc1cccc(NC(=O)c2oc3ccccc3c2-c2cnn(-c3ccccc3)c2)c1 | – | > 500 | > 500 | > 500 | > 500 | > 500 | > 500 | > 500 | – | > 500 | 320 | > 500 | > 500 | > 500 | > 500 | 41.2 | > 500 | > 500 | > 500 | > 500
C=C1C(=O)O[C@@H]2C[C@@H]1CC[C@@]1(C)O[C@@H]1CC[C@@]1(C)O[C@@H]1CC[C@@]2(C)O | – | > 100 | > 100 | 35.9 | 31.4 | > 100 | 30.2 | > 100 | – | 32.3 | 32.9 | 16.9 | 16.2 | 30.6 | 14.6 | 15.3 | 30.3 | > 100 | 34.9 | > 100
CN(C)CCN=Cc1c2ccccc2c(=O)n2c1oc1ccccc12 | – | 21.4 | 26.7 | 36.7 | 16.1 | 24.3 | 23.6 | 28.6 | – | 6.76 | 12.1 | 10 | 2.89 | 8.44 | 10.8 | 6.67 | 2.97 | 14.5 | 11.5 | 29.9
C/C(=N/NC(=O)C(N)=O)C(CC(C(=O)Nc1ccccc1C)/C(C)=N\NC(=O)C(N)=O)C(=O)Nc1ccccc1C (stereo not drawn) | > 100 | > 100 | > 100 | > 100 | > 100 | > 100 | – | > 100 | – | – | – | – | – | – | – | – | – | – | – | –
CCOc1ccc(N=Nc2ccc3oc(=O)c(C(=O)Nc4ccc(OC)cc4)cc3c2)cc1 | > 100 | 86.7 | 63.6 | – | 38.8 | 84.8 | 93.1 | 78 | – | – | – | – | – | – | – | – | – | – | – | –
C/C(=C\CCc1ccoc1)CC/C=C(\C)CCCN1CCC(CO)CC1 | 5.96 | – | 9.6 | 22.3 | 2.84 | 20 | 3.74 | 16.7 | 1.96 | – | 3.39 | 6.16 | 1.5 | 6.94 | 1.77 | 3.85 | 8.41 | 20.6 | – | –
